Test results taken from patent US20070297980A1, “Geldanamycin and Derivatives Inhibit Cancer Invasion and Identify Novel Targets” (priority 2004, published 2007).
Entries after “also recorded” stand apart in the source; their conditions may differ.

Tests used:
[1] = test system: HGF/SF-induced Matrigel invasion by DBTRG cells; test: In vitro Matrigel invasion assay, DBTRG; type: cell-based, human; conditions: even at pM-fM concentrations
Description: (§1) In Vitro Cell Invasion Assay. The in vitro invasion assay was performed as previously described by Jeffers et al., 1996, using a 24-well invasion chamber coated with GFR-Matrigel® (Becton Dickinson). Cells were suspended in DMEM/0.1% BSA and were plated in the invasion (upper) chamber (5−25×10^3 cells/well) (DBTRG 5,000, SNB19 and U373 25,000 cells/well). The lower chamber was filled with DMEM/0.1% BSA with or without the addition of HGF/SF (100 ng/ml). To evaluate GA inhibition, GA was serially diluted into both the upper and lower chambers at final concentrations 1 μM, to 1 fM as indicated and immediately after HGF/SF addition. After 24 h, cells remaining in the upper chamber were removed by scraping. The cells that invaded through the Matrigel® and attached to the lower surface of the insert were stained using Diff-Quik (Dade Behring Inc.) and counted under a light microscope.

Met expression = test: Western blot, Met expression; type: cell-based; design: effect on Met expression: dose or concentration left out as unconfirmed; conditions: for Met abundance upon acute challenge: 24 hrs, MDCKG1-G3 cells chronically exposed to MA; for effect on Met expression: MDCK and DBTRG cells
Description: (§2) Western Blot and Expression of Met and other Proteins. Cells were seeded in 60×15 mm dishes at 10^5 cells per dish. HGF/SF (100 ng/ml) was added to each dish 24 hr later. Immediately thereafter, serially diluted GA or MA was added to the relevant dishes at the concentrations indicated, and incubated for the indicated length of time before lysis. For Met and MAPK phosphorylation detection, 10^5 cells were seeded in 60×15 mm dishes and serum-starved for 24 hrs. After HGF/SF (100 ng/ml) stimulation, cells were lysed at 10 and 30 min. Control cells were not given HGF/SF. After cell lysis, protein concentration was determined by DC protein assay (Bio-Rad), and equal quantities of protein were loaded and separated by SDS-PAGE and transferred in a Western blot to PVDF membranes (Invitrogen). After blocking with 5% dry milk, membranes were blotted with specific antibodies.
After cells grew to 80% confluence, GA or MA, at various concentrations was added to the dishes. After 24 hours, cells were washed twice with PBS and lysed in TNESV buffer supplemented with Complete™ proteinase inhibitors (Roche Molecular Biochemicals). Protein concentration was determined by DC protein assay. Equal quantities of protein were used for Western blotting for Met and HSP90α. For pull-down assays, 20 μl of control or GA beads adjusted for equal concentrations were added to […] of extract and rotated at 4° C. overnight. Beads were recovered by low speed centrifugation and washed 3× with TNESV. Sixty μl 2× sample buffer was added to beads and boiled for 10 min. The samples were subjected to SDS-PAGE followed by Western blot analysis.

[2] = test system: HGF/SF-induced cell scattering in MDCKG3 cells; test: Scatter assay, MDCKG3 cells (maintained in MA); type: cell-based, canine; conditions: MDCKG3 cells maintained in 3×10^−6 M MA; GA tested 10^−7 to 10^−15 M
Description: (§3) Scatter Assay. In parallel with assessing uPA activity, 96-well plates of MDCK cells were used to detect cell scattering. Cell preparation was same as above (plasmin assay) described above. At the same time as uPA activity was measured, the cells being assayed for scatter were fixed, stained (Diff-Quik Set, Dade Behring AG) and photographed.

[3] = test system: HGF/SF-induced Matrigel invasion by SNB19 cells; test: In vitro Matrigel invasion assay, SNB19; type: cell-based, human; conditions: even at pM-fM concentrations
Description: as §1

[4] = test system: HGF/SF-induced Matrigel invasion by U373 cells; test: In vitro Matrigel invasion assay, U373; type: cell-based, human; conditions: even at pM-fM concentrations
Description: as §1

[5] = test system: HGF/SF-induced uPA-plasmin activity in MDCK cells; test: HGF/SF-Met-uPA-plasmin cell-based assay, MDCK cells; design: species or system canine; conditions: for concentration level at which HGF/SF-induced uPA activity is inhibited: words
Description: Cells were seeded in 96-well plates at 1500 cells/well (with the exception of SK-LMS-1 cells, which were seeded at 5000 cells/well) in order to detect color intensity, either with MTS (Promega) for cell growth determination or via Chromozyme PL (Boehringer Mannheim) for uPA-plasmin activity measurement. Cells were grown overnight in DMEM/10% FBS as described previously. Drugs were dissolved in DMSO and serially diluted from stock concentrations into DMEM/10% FBS medium and added to the appropriate wells. Immediately after drug or reagent addition, HGF/SF (60 ng/ml) was added to all wells (with the exception of wells used as controls to calculate basal growth and uPA-plasmin activity levels). Twenty-four hours after drug and HGF/SF addition, plates were processed for the determination of uPA-plasmin activity as follows: Wells were washed twice with DMEM (without phenol red; Life Technologies, Inc.), and 200 μl of reaction buffer [50% (v/v) 0.05 units/ml plasminogen in DMEM (without phenol red), 40% (v/v) 50 mM Tris buffer (pH 8.2), and 10% (v/v) 3 mM Chromozyme PL (Boehringer Mannheim) in 100 mM glycine solution] were added to each well.

[6] = preliminary reports; Neckers et al; Sausville et al; cited from earlier work
[7] = test system: HGF/SF-induced uPA activity in U373 cells; test: HGF/SF-Met-uPA-plasmin cell-based assay, U373 cells; design: species or system human
Description: (§4) HGF/SF-Met-uPA-Plasmin Cell-Based Assay (Webb et al., supra). Cells were seeded in 96-well plates at 1500 cells/well (with the exception of SK-LMS-1 cells, which were seeded at 5000 cells/well) in order to detect color intensity, either with MTS (Promega) for cell growth determination or via Chromozyme PL (Boehringer Mannheim) for uPA-plasmin activity measurement. Cells were grown overnight in DMEM/10% FBS as described previously. Drugs were dissolved in DMSO and serially diluted from stock concentrations into DMEM/10% FBS medium and added to the appropriate wells. Immediately after drug or reagent addition, HGF/SF (60 ng/ml) was added to all wells (with the exception of wells used as controls to calculate basal growth and uPA-plasmin activity levels). Twenty-four hours after drug and HGF/SF addition, plates were processed for the determination of uPA-plasmin activity as follows: Wells were washed twice with DMEM (without phenol red; Life Technologies, Inc.), and 200 μl of reaction buffer [50% (v/v) 0.05 units/ml plasminogen in DMEM (without phenol red), 40% (v/v) 50 mM Tris buffer (pH 8.2), and 10% (v/v) 3 mM Chromozyme PL (Boehringer Mannheim) in 100 mM glycine solution] were added to each well. […]

[8] = test system: HGF/SF-induced MDCK cell scattering; test: Scatter assay, MDCK cells; type: cell-based, canine
Description: as §3

[9] = Egorin M J et al., 2002; cited from earlier work
MDCK cells = test: Long-term culture of MDCK cells in macbecin II; type: cell-based, canine
Description: All compounds were first diluted in DMSO at 0.01M, separated into small stock aliquots (5 μl) and kept at −80° C. until use. When used, stocks were thawed and serially diluted with DMEM/10% FBS. For long term culture with MA, conditioned medium with the compound at 1, 2, or 3×10^−6 M was changed at least twice a week.

HSP90α = test: GA-affinity bead pull-down (solid-phase binding assay); conditions: MDCK and DBTRG lysates
[10] = test system: cell proliferation (DBTRG, U373, SNB19 cells); test: Proliferation assay (MTS); type: cell-based, human; conditions: cell line not stated
Description: Proliferation Assay. In parallel with uPA-plasmin detection assay, cell proliferation in 96-well plates was detected with MTS. […] The plates were then incubated at 37° C., in a 5% CO2 atmosphere for 4 h. The absorbance was read on an automated spectrophotometric plate reader at 490 nm.

HSP90α expression = test: Western blot, HSP90α expression; type: cell-based; conditions: MDCK and DBTRG cells
Description: as §2
After cells grew to 80% confluence, GA or MA, at various concentrations was added to the dishes. After 24 hours, cells were washed twice with PBS and lysed in TNESV buffer supplemented with Complete™ proteinase inhibitors (Roche Molecular Biochemicals). Protein concentration was determined by DC protein assay. Equal quantities of protein were used for Western blotting for Met and HSP90α. […]

[11] = test system: uPA activity in U87 cells; test: HGF/SF induction of uPA activity, U87 cells; type: cell-based, human; conditions: peak uPA induction after HGF/SF to basal
Description: (§5) Cells were seeded in 96-well plates at 1500 cells/well (with the exception of SK-LMS-1 cells, which were seeded at 5000 cells/well) in order to detect color intensity, either with MTS (Promega) for cell growth determination or via Chromozyme PL (Boehringer Mannheim) for uPA-plasmin activity measurement. Cells were grown overnight in DMEM/10% FBS as described previously. Drugs were dissolved in DMSO and serially diluted from stock concentrations into DMEM/10% FBS medium and added to the appropriate wells. Immediately after drug or reagent addition, HGF/SF (60 ng/ml) was added to all wells (with the exception of wells used as controls to calculate basal growth and uPA-plasmin activity levels). Twenty-four hours after drug and HGF/SF addition, plates were processed for the determination of uPA-plasmin activity as follows: Wells were washed twice with DMEM (without phenol red; Life Technologies, Inc.), and 200 μl of reaction buffer [50% (v/v) 0.05 units/ml plasminogen in DMEM (without phenol red), 40% (v/v) 50 mM Tris buffer (pH 8.2), and 10% (v/v) 3 mM Chromozyme PL (Boehringer Mannheim) in 100 mM glycine solution] were added to each well. […]

[12] = test system: uPA activity in DBTRG cells; test: HGF/SF induction of uPA activity, DBTRG cells; type: cell-based, human; conditions: peak uPA induction after HGF/SF to basal
Description: as §4

[13] = test system: uPA activity in U118 cells; test: HGF/SF induction of uPA activity, U118 cells; type: cell-based, human; conditions: peak uPA induction after HGF/SF to basal
Description: as §4

[14] = test system: uPA activity in DU145 cells; test: HGF/SF induction of uPA activity, DU145 cells; type: cell-based, human; conditions: peak uPA induction after HGF/SF to basal
Description: as §5

[15] = test system: uPA activity in SW1874 cells; test: HGF/SF induction of uPA activity, SW1874 cells; type: cell-based, human; conditions: peak uPA induction after HGF/SF to basal
Description: as §5

[16] = test system: uPA activity in SK-LMS-1 cells; test: HGF/SF induction of uPA activity, SK-LMS-1 cells; type: cell-based, human; conditions: peak uPA induction after HGF/SF to basal
Description: as §5

[17] = test system: uPA activity in SNB19 cells; test: HGF/SF induction of uPA activity, SNB19 cells; type: cell-based, human; conditions: peak uPA induction after HGF/SF to basal
Description: as §4

[18] = test system: uPA activity in PC-3 cells; test: HGF/SF induction of uPA activity, PC-3 cells; type: cell-based, human; conditions: peak uPA induction after HGF/SF to basal
Description: as §4

Compound: COC1=C2C[C@@H](C)C[C@H](OC)[C@H](O)[C@@H](C)/C=C(\C)[C@H](OC(N)=O)[C@@H](OC)/C=C\C=C(/C)C(=O)NC(=CC1=O)C2=O [Compound 1, (+)-Geldanamycin]
- effect on HGF/SF-induced Matrigel invasion [1]: abolished
- Met abundance upon acute challenge (Met expression; 10^−6 M GA): dramatic decreases
- effect on Met expression (Met expression; GA at nM levels): downregulates
- GA concentration at which scattering was again fully observed [2]: 10^−15 M
- effect on HGF/SF-induced Matrigel invasion [3]: abolished
- effect on HGF/SF-induced Matrigel invasion [4]: abolished
- activity in HGF/SF-induced uPA-plasmin cell-based assays (words) ([5]; MDCK cells): active

Compound: CO[C@H]1[C@@H](OC)C[C@H](C)[C@@H](OC)C2=CC(=O)C=C(NC(=O)/C(C)=C/C=C\[C@H](C)[C@@H](OC(N)=O)/C(C)=C/[C@@H]1C)C2=O [Compound 2, Macbecin I, reference compound]
- activity in HGF/SF-induced uPA-plasmin cell-based assays (words) ([5]; MDCK cells): inactive
- activity in HGF/SF-induced uPA-plasmin cell-based assays (words) ([5]; MDCK cells, listed as macbecin I): poor activity

Compound: C[C@@H]1C[C@H]2O[C@@H]2/C=C\C=C\C(=O)Cc2c(Cl)c(O)cc(O)c2C(=O)O1 [Compound 3, Radicicol, reference compound]
- activity in HGF/SF-induced uPA-plasmin cell-based assays (words) ([5]; MDCK cells): poor activity; also recorded: inactive
- concentration level at which HGF/SF-induced uPA activity is inhibited [5]: only at nanomolar levels
- concentration level at which HGF/SF-induced uPA activity is inhibited ([5]; listed as RA): only at nM or higher concentrations

Compound: C=CCNC1=C2C[C@@H](C)C[C@H](OC)[C@H](O)[C@@H](C)/C=C(\C)[C@H](OC(N)=O)[C@@H](OC)/C=C\C=C(/C)C(=O)NC(=CC1=O)C2=O [Compound 4, 17-Allylamino-17-demethoxygeldanamycin]
- hepatic toxicity in clinical investigations [6]: dose-limiting
- lowest concentration at which inhibitory effects on uPA activity observed ([7]; U373 cells): 10^−17 M
- concentration range inhibiting HGF/SF-induced MDCK cell scattering ([8]; FIG. 10): pM to fM range
- lowest concentration at which inhibitory effects on uPA activity observed ([5]; MDCK cells): 10^−17 M
- activity in HGF/SF-induced uPA-plasmin cell-based assays (words) ([5]; MDCK cells): active

Compound: COC1/C=C\C=C(/C)C(=O)NC2=CC(=O)C(NCCN(C)C)=C(C[C@@H](C)C[C@H](OC)[C@H](O)[C@@H](C)/C=C(\C)[C@@H]1OC(N)=O)C2=O (some centres unmarked) [Compound 5, 17-(2-Dimethylaminoethyl)amino-17-demethoxygeldanamycin]
- quantity not named in the sentence ("was essentially 100% when given i.p.") [9]: ~100%

Compound: CO[C@H]1/C=C\C=C(/C)C(=O)NC2=CC(=O)C(N3CCC3)=C(C[C@@H](C)C[C@H](OC)[C@H](O)[C@@H](C)/C=C(\C)[C@@H]1OC(N)=O)C2=O [Compound 14, 17-(1-Azetidinyl)-17-demethoxygeldanamycin]
- activity in HGF/SF-induced uPA-plasmin cell-based assays (words) ([5]; MDCK cells): active

Compound: CO[C@H]1/C=C\C=C(/C)C(=O)NC2=CC(=O)C(N3CCC3)=C(C[C@@H](C)C[C@H](OC)[C@H](OC(C)=O)[C@@H](C)/C=C(\C)[C@@H]1OC(N)=O)C2=O [Compound 18, 11-O-Acetyl-17-(1-azetidinyl)-17-demethoxygeldanamycin]
- activity in HGF/SF-induced uPA-plasmin cell-based assays (words) ([5]; MDCK cells): inactive

Compound: CO[C@H]1/C=C\C=C(/C)C(=O)NC2=CC(=O)C(N3CCC3)=C(C[C@@H](C)C[C@H](OC)[C@H](O)[C@@H](C)/C=C(\C)[C@@H]1O)C2=O [Compound 19, 17-(1-Azetidinyl)-7-decarbamyl-17-demethoxygeldanamycin]
- activity in HGF/SF-induced uPA-plasmin cell-based assays (words) ([5]; MDCK cells): completely inactive

Compound: COc1c(O)cc2c(O)c1C[C@@H](C)C[C@H](OC)[C@H](O)[C@@H](C)/C=C(\C)[C@H](OC(N)=O)[C@@H](OC)/C=C\C=C(/C)C(=O)N2 [Compound 20, 17,21-Dihydrogeldanamycin]
- activity in HGF/SF-induced uPA-plasmin cell-based assays (words) ([5]; MDCK cells): active

Compound: COC1CC(C)C(OC)c2cc(O)cc(c2O)NC(=O)/C(C)=C\C=C/C(C)C(OC(N)=O)/C(C)=C\C(C)C1OC (centres unmarked) [Compound 21, Macbecin II, reference compound]
- highest non-toxic concentration (MDCK cells; MDCK cells maintained for several months): 3 µM
- MA concentration up to which MDCK cells continued to proliferate (MDCK cells; long-term culture): ≤ 3 µM
- total HSP90α recovered with GA-affinity beads (HSP90α; cells treated with 10^−5 M MA): negligible levels
- HSP90α available to the GA affinity beads (HSP90α; cells treated with 10^−6 M MA): reduced
- effect on HGF/SF-induced scattering of MDCK cells ([8]; 3×10^−6 M MA): effectively blocked
- Met abundance upon acute challenge (Met expression; 10^−5 M MA): less of a decrease
- effect on Met expression (Met expression; at MA): downregulation
- concentration level at which proliferation is inhibited [10]: nM levels
- effect on HSP90α expression (HSP90α expression): up-regulation
- activity in HGF/SF-induced uPA-plasmin cell-based assays (words) ([5]; MDCK cells): inactive
- activity in HGF/SF-induced uPA-plasmin cell-based assays (words) ([5]; MDCK cells, listed as macbecin II): poor activity
- concentration level at which HGF/SF-induced uPA activity is inhibited [5]: only at nM or higher concentrations

Compound: HGF/SF: hepatocyte growth factor/scatter factor, ligand of the Met receptor tyrosine kinase
- uPA activity induction (fold) [11]: 1.04 fold
- uPA activity induction (fold) [12]: 2.28 fold
- uPA activity induction (fold) [13]: 1.12 fold
- uPA activity induction (fold) [14]: 1.06 fold
- uPA activity induction (fold) [15]: 0.97 fold
- uPA activity induction (fold) ([7]; U373, peak uPA induction after HGF/SF to basal): 1.56 fold
- uPA activity induction (fold) [16]: 2.01 fold
- uPA activity induction (fold) [17]: 1.95 fold
- uPA activity induction (fold) ([5]; MDCK, peak uPA induction after HGF/SF (0-60 ng/ml, 24 h) to basal): 4.27 fold
- uPA activity induction (fold) [18]: 1.00 fold
